Results: the METLIN SMRT retention time set (Domingo-Almenara et al. 2019)

Test: gradient 5% acetonitrile 3 min, to 50% in 2 min, to 85% in 15 min, held 3 min, 100 µL/min
Details: column: Zorbax Extend-C18 2.1 x 50 mm; eluents: water / acetonitrile, 0.1% formic acid
How it was run: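 Mixtures of ~100 pure standards were chromatographed on a Zorbax Extend-C18 column (2.1 × 50 mm, 1.8 μm) at 100 μL/min using water and acetonitrile, each with 0.1% formic acid. Detection used a quadrupole time-of-flight mass spectrometer in positive and negative ionization mode, and data collection spanned 3 months. Retention time was obtained from adduct peaks picked computationally and each checked manually.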

CCOc1ccc(-c2noc(Cc3nc(-c4ccc(C)cc4)cs3)n2)cc1
RP-LC retention time: 1320 s

CCCN(CC1CC1)C(=O)[C@@H]1[C@H](c2cc(OC)c(OC)c(OC)c2)c2cc3c(cc2[C@H](O)[C@H]1CO)OCO3
RP-LC retention time: 740 s

Cc1cc(Nc2ccccc2)nc(N2CCN(C(=O)Nc3ccc(Cl)cc3)CC2)n1
RP-LC retention time: 761 s

CCC(C)NC(=O)c1cc(C)nc2ccc(F)cc12 (configuration not stated)
RP-LC retention time: 680 s

Cc1ccc(NC(=O)Cn2ccc3ccc(-c4nnc(C)o4)cc32)nc1
RP-LC retention time: 690 s

O=C(Cc1cccs1)N1CCCN(c2cc(-c3ccc4c(c3)OCO4)[nH]n2)CC1
RP-LC retention time: 671 s

Cc1ccc(Cn2c(C(=O)NCCc3ccccc3)cc3sccc32)cc1
RP-LC retention time: 1180 s

CN(CCc1ccncc1)C(=O)C1CCN(c2cnn(Cc3ccccc3)c(=O)c2)CC1
RP-LC retention time: 612 s

O=C1Cc2cc(NC(=O)NC(c3ccccc3)c3ccccc3)ccc2N1
RP-LC retention time: 706 s

Clc1ccccc1-c1nc(-c2cccc(-c3ccn[nH]3)c2)no1
RP-LC retention time: 1040 s

Cc1cc(C)cc(C(=O)N2CCN(c3cc(=O)n(C)c(=O)n3C)CC2)c1
RP-LC retention time: 691 s

CCOC(=O)N1CCN(C(=O)c2cc(-c3ccco3)on2)CC1
RP-LC retention time: 735 s

O=C(Cn1cccc1-c1nc(-c2ccc3c(c2)OCO3)no1)Nc1cc(F)ccc1Cl
RP-LC retention time: 1110 s

CCN(CC)C(=O)c1ccc(-c2nc3cc(NS(=O)(=O)c4cc(C)ccc4C)ccc3n2C)cc1
RP-LC retention time: 739 s

Cc1cc(S(=O)(=O)N2CC(Cc3nncn3C3CCCC3)C2)ccc1F
RP-LC retention time: 747 s

COCC(=O)N(CC(=O)N1CCc2sccc2C1COc1ccc(Cl)cc1)CC1CCCO1 (configuration not stated)
RP-LC retention time: 871 s

CCN(CC)c1ncc2c(n1)CCC(C(=O)N1CCN(c3ccc(C)cc3)CC1)C2 (configuration not stated)
RP-LC retention time: 793 s

CC1(C(=O)NCc2ccccc2)CN(S(=O)(=O)c2ccccc2)CC(=O)N1c1cccc(Cl)c1 (configuration not stated)
RP-LC retention time: 958 s

Cc1ccc(NS(=O)(=O)c2cc(-c3cc(C(F)(F)F)on3)sc2C)c(C)c1
RP-LC retention time: 1230 s

C[C@@H](O)[C@H]1C(=O)N2C(C(=O)OCOC(=O)C(C)(C)C)=C(SC3CN(C4=NCCS4)C3)[C@H](C)[C@H]12
RP-LC retention time: 732 s

CCn1c(CCNC(=O)c2ccc(N(C)C)cc2)nc2cccnc21
RP-LC retention time: 625 s

CNC(=O)[C@@H]1C[C@@H](O)CN1C1CCN(C(=O)C2CCCCC2)CC1
RP-LC retention time: 577 s

Cc1ccc(NC(=O)Cn2c(C)nc3cc4c(cc32)OCCO4)c(C)c1
RP-LC retention time: 668 s

COc1ccc(-c2nnc(-c3ccc(C)c(S(=O)(=O)NC4CCCC4)c3)o2)cc1OC
RP-LC retention time: 1010 s

CCn1c(CN2CCN(S(C)(=O)=O)CC2)nc2cc(NC(=O)CC(C)C)ccc21
RP-LC retention time: 630 s

Cc1nc(N2CCC(C(=O)Nc3cc(F)ccc3F)CC2)c2c(C)c(C)oc2n1
RP-LC retention time: 972 s

COc1cc(N2C=C(C(=O)N3CCCCC3)S(=O)(=O)c3ccccc32)cc(OC)c1OC
RP-LC retention time: 812 s

Cc1nc(C2(C)CCN(S(=O)(=O)c3cc(F)ccc3C)CC2)no1
RP-LC retention time: 948 s

CCc1nc(-c2csc(S(=O)(=O)N3CCC(C(=O)N4CCCCCC4)CC3)c2)no1
RP-LC retention time: 955 s

O=C(CSc1nc(-c2ccccc2)cs1)NCc1ccco1
RP-LC retention time: 839 s

Cc1cc(C)c(S(=O)(=O)Nc2cccc(C(F)(F)F)c2)c(C)c1
RP-LC retention time: 1100 s

COc1cc(OC)cc(-c2nc(-c3ccc4ncn(C(C)C)c4c3)no2)c1
RP-LC retention time: 843 s

COc1ccc(C(C)NC(=O)c2nnc(-c3ccc(S(=O)(=O)N(C)C)cc3)o2)cc1 (configuration not stated)
RP-LC retention time: 893 s

COc1ccc2cc(C(=O)N3CCCC(c4nnc(-c5ccccc5F)s4)C3)[nH]c2c1 (configuration not stated)
RP-LC retention time: 918 s

CCCn1cc(CCNC(=O)C2CCCCC2)c2cccnc21
RP-LC retention time: 772 s

COc1ccc(-n2ncc3c(=O)n(Cc4nc(-c5cccc(Br)c5)no4)cnc32)cc1
RP-LC retention time: 1110 s

CCCn1c(=O)sc2cc(S(=O)(=O)N3CCC(C(=O)NCc4cccs4)CC3)ccc21
RP-LC retention time: 880 s

Cc1ccc(Oc2nccnc2SCC(=O)Nc2ccc(C)c(C)c2)cc1
RP-LC retention time: 1140 s

C=CCn1c(=O)c2ccccc2n(Cc2nc(-c3cc(OC)cc(OC)c3)no2)c1=O
RP-LC retention time: 1020 s

Cc1cc(N2CCN(c3ccccn3)CC2)n2nc(-c3ccco3)nc2n1
RP-LC retention time: 584 s

O=C(CSc1ccc(N2CCCC(C(=O)NC3CC3)C2)nn1)Nc1ccc2c(c1)CCC2 (configuration not stated)
RP-LC retention time: 691 s

Cc1ccc(N2CCN(C(=O)c3cn4c(n3)CCCC4)CC2)cc1
RP-LC retention time: 626 s

CC(C)CC(=O)Nc1ccc2nc(N3CCN(c4ccc(Cl)cc4)CC3)cc(C(=O)O)c2c1
RP-LC retention time: 746 s

O=C(c1cccs1)N1CCC(c2nncn2-c2ccccc2)CC1
RP-LC retention time: 626 s

O=C1NC2(CCN(C(=O)c3cccc(Cl)c3)CC2)N=C1c1cccc(F)c1
RP-LC retention time: 888 s

CCc1nc(-c2csc(S(=O)(=O)N3CCCC(C(=O)NC(C)C)C3)c2)no1 (configuration not stated)
RP-LC retention time: 865 s

COc1cc(OC)cc(C(=O)N2CCC3(CC2)N=C(c2ccccc2)NO3)c1
RP-LC retention time: 810 s

Cc1ccccc1-n1c(Cn2nc(-c3cccc(O)c3)c3c(N)ncnc32)nc2cccc(C)c2c1=O
RP-LC retention time: 778 s

CN(C)c1ccc(CNc2ncccc2-c2nnc(-c3ccccc3)o2)cc1
RP-LC retention time: 884 s

CCc1cccc(NC(=O)c2cc(C(C)C)n3nccc3n2)c1
RP-LC retention time: 1240 s

O=C(c1ccccn1)N1CCCC1c1nc(-c2ccc(F)cc2F)no1 (configuration not stated)
RP-LC retention time: 832 s

CCN1CCN(c2cc(C)c3cc(NC(=O)COc4ccc(F)cc4)ccc3n2)CC1
RP-LC retention time: 594 s

COCCNC(=O)N1CCCN(C2=NS(=O)(=O)C(c3ccc(F)cc3)=C2C)CC1
RP-LC retention time: 669 s

CC1CCCCN1Cc1nc(-c2ccc(N(C)Cc3ccccc3)nc2)no1 (configuration not stated)
RP-LC retention time: 912 s

COc1ccc(N2CC(c3nc(-c4ccccn4)no3)CC2=O)cc1Cl (configuration not stated)
RP-LC retention time: 724 s

Cc1ccc(Nc2c(-c3ccc(N4CCOCC4)cc3)nc3ncccn23)cc1Cl
RP-LC retention time: 751 s

O=c1c2sccc2n(Cc2nc(-c3ccccc3)no2)c(=O)n1-c1ccccc1
RP-LC retention time: 932 s

CC(C)c1cc(C(=O)Nc2ccccc2)nc2ccnn12
RP-LC retention time: 1080 s

CCC(C)n1c(=O)c2ccccc2n(Cc2nc(-c3ccccc3)no2)c1=O (configuration not stated)
RP-LC retention time: 1190 s

COc1ccc(-c2nnc(SCC(=O)Nc3ccc(C)cc3Br)o2)cc1
RP-LC retention time: 986 s

CCCCn1cc(S(=O)(=O)NCc2ccc(F)cc2Cl)c2cccnc21
RP-LC retention time: 1030 s

Cc1ccc2[nH]c(=O)c(CCC(=O)O)cc2c1
RP-LC retention time: 651 s

Cn1nccc1C(=O)NCc1ccc(-c2nc(-c3ccc(F)cc3)no2)s1
RP-LC retention time: 930 s

O=C(CCc1nc(-c2ccc(N3CCCCCC3)cc2)no1)N1CCCC1
RP-LC retention time: 1080 s

CCC(C)NC(=O)N1CCN(c2cc(-c3cccc(OC)c3)ncn2)CC1 (configuration not stated)
RP-LC retention time: 634 s

CCCC(NC(=O)c1sccc1C)C(=O)Nc1nc2ccccc2[nH]1 (configuration not stated)
RP-LC retention time: 686 s

N#Cc1ccc(C(=O)NC2CCN(C(=O)N3C[C@H]4C[C@H](C3)[C@H]3CCCC(=O)N3C4)CC2)cc1
RP-LC retention time: 640 s

CCOc1ccc(CNC(=O)c2cc(-c3ccncc3)cn2C)cc1
RP-LC retention time: 644 s

COc1ccc(-c2nc3ncccn3c2Nc2cccc(C(F)(F)F)c2)cc1
RP-LC retention time: 903 s

O=c1n(Cc2ccccc2F)nc2c(S(=O)(=O)N3CCOCC3)cccn12
RP-LC retention time: 745 s

CN(C)CCNC(=O)c1cc(N2CCCC2)n2nccc2n1
RP-LC retention time: 590 s

CCn1ncc(NC(=O)c2ccc(OC)c(OC)c2)c(N2CCOCC2)c1=O
RP-LC retention time: 722 s

O=C(Cn1cnc(-c2cccs2)cc1=O)NCc1ccccc1OC(F)(F)F
RP-LC retention time: 801 s

Cc1ccc(S(=O)(=O)c2cnc(N3CCC4(CC3)OCCO4)nc2N)cc1
RP-LC retention time: 858 s

Cc1[nH]c(C(=O)N2CCC(CC(=O)NCc3ccc(Cl)cc3)CC2)c(C)c1C(=O)OC(C)C
RP-LC retention time: 878 s

COc1cccc(C2=Nc3cccnc3N(CC(=O)NCc3ccco3)C(=O)C2)c1
RP-LC retention time: 809 s

Cc1ccc(S(=O)(=O)N2CCC(C)(C(=O)NCc3ccccc3)CC2)cc1
RP-LC retention time: 932 s

O=C(NCC1(c2cccs2)CCOCC1)c1cccs1
RP-LC retention time: 705 s

COc1cccc(-n2c(=O)c(C(=O)Nc3cccc(F)c3)c(O)c3cccnc32)c1
RP-LC retention time: 1250 s

O=C(NCc1ccc(Cl)cc1)C1CCN(C(=O)c2cc3ccsc3[nH]2)CC1
RP-LC retention time: 797 s

COC1CCC12CCN(C(=O)c1ccc(Cc3c(C)n[nH]c3C)o1)CC2 (configuration not stated)
RP-LC retention time: 656 s

COCCCNC(=O)c1ccc(-n2nc(Sc3ccc(Cl)cc3)ccc2=O)cc1
RP-LC retention time: 863 s

O=C(O)c1cccc(-c2ccc(N3CCCCCC3)nc2)c1
RP-LC retention time: 627 s

O=C(Nc1ccccc1F)N1CCC(n2cnc3c(Cl)cccc3c2=O)CC1
RP-LC retention time: 828 s

Cc1cc(C)c(NC(=O)COc2cc(C(F)(F)F)c3c(C)nn(C)c3n2)c(C)c1
RP-LC retention time: 1060 s

NC(=O)c1ccc2c(c1)n(Cc1ccccc1)c(=O)c1ccnn12
RP-LC retention time: 674 s

NC(=O)C1CCN(c2ncnc3c2cnn3-c2ccc(Cl)cc2)CC1
RP-LC retention time: 732 s
